The nature of series [1]: Peptide stability control, medium with no cells (Example 4). Particulars: media only (no cells), possible adherence to plastic. Type of series: in vitro ADME. The protocol: HEK293 (passage 24) or Ea.hy926 (passage 37) were seeded into tissue-culture-grade 96-well plates at a density of 20,000 cells/well. After 24 hr, cells were washed with PBS and replaced with Opti-MEM reduced serum media containing SEQ ID NO:1 or SEQ ID NO:2 (9 μM). Aliquots of equal volume were taken at T=0 and 60 min. SEQ ID NO:2 was added to control wells having media (no cells) only. Samples were immediately acidified in 0.1% TFA, snap frozen in dry ice and stored in −80° C. until analysed by LCMS.
Samples were analyzed by LC-MS/MS on a Shimadzu Nexera uHPLC (Japan) coupled to a Triple Tof 5600 mass spectrometer (ABSCIEX, Canada) equipped with a duo electrospray ion source. One μL of each extract was injected onto a 2.1 mm×100 mm Zorbax C18 1.8 um column (Agilent) at 200 μL/min. Linear gradients of 1-50% solvent B over 7 min at 200 uL/min flow rate, followed by a steeper gradient from 50% to 98% solvent B in 1 min were used for peptide elution. Solvent B was held at 98% for 3 min for washing the column and returned to 1% solvent B for equilibration prior to the next sample injection. […] SEQ ID NO:1 and SEQ ID NO:2 were quantified using the […] doubly charged molecular ion from m/z 510.270 to 510.325. The data was acquired using Analyst TF 1.6 and quantification was carried out using MultiQuant 2.1.1 software (ABSCIEX, Canada).

Series [2] concerns the target T1, NEP (Homo sapiens, UniProt P08473).
T1 construct: purchased R & D systems 1182-ZNC-010
The experiment in a line: QFS assay of Aβ-degrading enzymes: NEP (Example 6). Type of series: biochemical. Here is the method:
Plate reader-based enzyme assays were performed using a quenched fluorescent substrate (QFS) in a 96-well format using a SpectraMAX M4 Microplate reader (Molecular Devices). The increase in fluorescence following addition of QFS (40 μM) was taken as evidence of enzyme activity. Fluorescence was monitored over 2 h at 37° C. using κEx=320 nm and λEm=405 nm. Assays were conducted in black 96-well plates. Specific enzyme activity was expressed as a rate of substrate cleavage calculated using a standard curve of 7-methoxy-coumarin-4-acetic acid.
In all plate reader-based enzyme assays using QFS, the reaction rate (μmol of substrate cleaved/min) was calculated using linear regression analysis (GraphPad Prism software version 8.01). The reaction rates calculated were used to generate the enzyme kinetic parameters Vmax and Km through non-linear regression analysis (GraphPad Prism software, version 8.01; Michaelis-Menten equation). Where indicated, enzyme activity in the presence of peptide was expressed as a % of the enzyme alone. Data were expressed as mean±SEM and statistical significance was determined using t-tests or one-way ANOVAs followed by Tukey's post-hoc test. P<0.05 was considered as statistically significant. In all assays conducted using 96-well plates, the reaction mixtures in each well were considered an independent experiment.
SEQ ID NO:2 was assessed in a QFS assay against enzymes NEP, ECE1, ECE2, ACE1, ACE2, IDE and MMP-2 using the method in Example 2 and the following procedure. NEP, ACE1, ECE2 (0.05 ng/μL), ACE2, IDE (0.10 ng/μL), and ECE1 (6.4 ng/μL) were incubated with SEQ ID NO:2 (0.9-26 μM) or scrambled control (9 μM) for 1 h at 37° C. Prior to use, MMP2 (0.50 ng/μL) was activated using p-aminophenylmercuric acetate to a final concentration of 100 μM for 1 h at 37° C. Following activation, MMP2 was incubated with SEQ ID NO:2 for 1 h at 37° C. before adding the appropriate QFS.

The test system of series [3] is STZ diabetic mouse model. The experiment in a line: STZ diabetic mouse model, inflammation and fibrosis (Example 12). The series is classed as in vivo. The conditions noted are these: 1 mg/kg subcutaneously by minipump, 4 weeks. The protocol: Mice were divided into two groups, all mice were treated with STZ (150 mg/kg) 1 week before starting treatment. Prior to STZ treatment, urine and blood samples were taken and a blood glucose test undertaken. Similarly, before treatment began, one week post STZ administration, urine and blood samples were taken and blood glucose was assessed. The two treatment groups were then treated with either vehicle only or SEQ ID NO: 2 (1 mg/kg) subcutaneously by minipump. The mice were then monitored for 4 weeks before sacrifice. Monitoring included assessing the weight of each animal every day, and taking urine and blood samples and measuring blood glucose at 2 weeks post treatment and immediately before sacrifice.

T1 sequence (P08473 whole entry): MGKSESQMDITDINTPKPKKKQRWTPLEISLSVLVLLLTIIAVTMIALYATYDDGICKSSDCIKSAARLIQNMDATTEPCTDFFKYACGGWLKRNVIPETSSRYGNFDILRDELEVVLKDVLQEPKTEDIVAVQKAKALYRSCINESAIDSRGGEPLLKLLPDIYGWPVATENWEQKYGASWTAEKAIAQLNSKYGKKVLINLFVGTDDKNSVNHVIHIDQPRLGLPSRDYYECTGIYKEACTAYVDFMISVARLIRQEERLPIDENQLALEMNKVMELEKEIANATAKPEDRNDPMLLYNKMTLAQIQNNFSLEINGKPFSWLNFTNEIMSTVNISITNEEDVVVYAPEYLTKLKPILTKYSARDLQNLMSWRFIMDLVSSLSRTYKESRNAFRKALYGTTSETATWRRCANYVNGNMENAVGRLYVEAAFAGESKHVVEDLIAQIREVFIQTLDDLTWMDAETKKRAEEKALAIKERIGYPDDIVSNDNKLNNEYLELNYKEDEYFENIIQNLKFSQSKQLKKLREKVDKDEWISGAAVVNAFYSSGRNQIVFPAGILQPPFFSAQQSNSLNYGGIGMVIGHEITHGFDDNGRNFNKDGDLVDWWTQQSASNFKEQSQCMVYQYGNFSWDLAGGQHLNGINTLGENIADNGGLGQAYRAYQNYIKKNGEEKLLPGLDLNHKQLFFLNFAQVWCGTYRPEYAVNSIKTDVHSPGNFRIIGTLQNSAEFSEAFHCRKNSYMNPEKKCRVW

Consider “H-SLFELGKMIL-NH2 [SEQ ID NO:2, H2N-SLFELGKMIL-NH2]”, for which, in series [1], the “amount remaining in the medium with no cells after 60 min” value is reported as 63%±14%. Besides, in series [2], the “submaximal concentration against NEP” value came out at 9 µM. The “NEP activity compared with respective enzyme alone” value in series [2] (peptide 2 μM (FIG. 2c)) was “significantly increased”. In addition, in series [2] (peptide 9 μM), the “activity of NEP as % of enzyme alone controls” value came to 380%. Further, the “NEP activity, concentration dependence” value in series [2] (peptide 0.9-26 μM) is listed as “increased the activity”. Besides, in series [3], the “blood glucose compared with vehicle treated mice” value is “lower”, the “kidney IL-6 expression compared with vehicle treated mice” value is reported as “lower”, the “kidney collagen I expression compared with vehicle treated mice” value is listed as “lower” and the “kidney collagen III expression compared with vehicle treated mice” value was “lower”.

Source of the values: US20240002441A1, “PEPTIDES AND USES THEREOF IN MODULATION OF AMYLOID-BETA PROTEIN DEGRADING PROTEASES” (priority 2020, published 2024).
